Several values for one entry are separate records, joined by “and”; a condition that tells them apart may be missing. Identical values can stand only once. Like-named read-outs stand apart in the source and are kept apart here.
Legend:
[1] = test system: dengue virus (DENV) serotype 2 strain D2S221; assay: Dengue virus D2S221 inhibition assay in Vero cells (immunostaining); conditions: read-out: D2S221 IC50
[2] = test system: H292 cells (NCI-H292); assay: Cytotoxicity in uninfected H292 cells (MTT); conditions: CC50, uninfected H292 cells
[3] = test system: alpha coronavirus 229E (CoV-229E); assay: CoV-229E virus-induced CPE inhibition in MRC-5 cells (XTT); conditions: 6 days
[4] = test system: HCoV-OC43; assay: HCoV-OC43 CPE assay in Huh-7 cells (neutral red uptake, 6 days); assay type: cell-based, human coronavirus (HCoV) OC43 strain; conditions: for Raw OD-Absorbance 490 nm: infected Huh-7, neutral red uptake, individual replicates
[5] = test system: HBV wild-type strain ayw1; assay: Primary anti-HBV assay in HepG2 2.2.15 cells (qPCR of HBV DNA); conditions: Hepatitis B virus, HepG2 2.2.15, 144 h
[6] = Cytotoxicity in HepG2 2.2.15 cells (MTS); assay type: cell-based; conditions: human, same assay plate
[7] = test system: Huh-7 cells; assay: Cytotoxicity / viability of uninfected Huh-7 cells (XTT, 6 days); conditions: for Viability (A490): control; for Viability of Huh-7 Cells (A490): raw absorbance 490 nm
[8] = test system: SARS-CoV-2 (USA-WA1/2020); conditions: Compound 1 at 25 μM; HCQ at 5 μM; remdesivir 10 μM
[9] = in vitro; conditions: African green monkey
[10] = test system: Vero E6 cells; conditions: for viability of Vero E6 cells (percent of vehicle alone): 2-day treatment, mean ± SD of duplicates
[11] = test system: SARS-CoV-2 (USA-WA1/2020); assay: microbe, parasite or virus in culture; conditions: Severe acute respiratory syndrome coronavirus 2, Vero C1008, 48 h, read-out: Live SARS-CoV-2 Antiviral Assay IC50
[12] = test system: HCoV 229E; assay: HCoV 229E CPE assay in MRC-5 cells (CellTiter Glo); assay type: cell-based, human coronavirus (HCoV) 229E; conditions: unidentified human coronavirus, MRC5, read-out: HCoV 229E CPE assay EC50
[13] = test system: HCoV OC43; assay: HCoV OC43 CPE assay in Huh7 cells (CellTiter Glo); assay type: cell-based, human coronavirus (HCoV) OC43; conditions: Betacoronavirus 1, OC43, Huh-7, read-out: HCoV OC43 CPE Assay EC50
[14] = test system: MRC-5 cells; assay: Cell viability of uninfected drug control MRC-5 cells (XTT), TC50; conditions: read-out: TC50, uninfected MRC-5 cells, 6 days
[15] = Cytotoxicity on Huh7 cells (CellTiter Glo); conditions: human
[16] = test system: HCoV-OC43; assay: HCoV-OC43 efficacy in H292 cells (MTT, 6 days); assay type: cell-based, HCoV-OC43 (Betacoronavirus 1); conditions: Betacoronavirus 1, OC43, NCI-H292, read-out: Efficacy
[17] = Cytotoxicity on MRC-5 cells (CellTiter Glo); conditions: human

CCN(CC)CCCC(C)Nc1ccnc2cc(Cl)ccc12 (stereo not drawn) [Chloroquine diphosphate]
IC50 [1]: 23700 nM

CCN(CC)CCCC(C)Nc1ccnc2cc(Cl)ccc12 (stereo not drawn) [Chloroquine]
Cytotoxicity [2]: 46.04 µM | EC50 [3]: 490 nM | Inhibition of OC43 Virus-Induced CPE in Huh-7 Cells ([4]; CQ 5 μM, relative to uninfected cells (mock), listed as CQ): 87.8% | Raw OD-Absorbance 490 nm ([4]; CQ 5 μM, listed as CQ): 0.693 and 0.689

Nc1ccn([C@@H]2CS[C@H](CO)O2)c(=O)n1 [Compound 3TC, Lamivudine]
EC50 [5]: 28.3 nM | EC90 [5]: > 2000 nM | CC50 [6]: > 2000 nM

CC[C@H]1CN2CCc3cc(OC)c(OC)cc3[C@@H]2C[C@@H]1C[C@H]1NCCc2cc(OC)c(OC)cc21 [Emetine]
Viability (A490) ([7]; 1 μM, percentage viability vs medium only): 18.3 ± 0.3% | Viability (A490) ([7]; 1 μM, raw absorbance, individual replicates): 0.176 and 0.179 | Viability (A490) ([7]; 5 μM, percentage viability vs medium only): 8.2 ± 0.7% | Viability (A490) ([7]; 5 μM, raw absorbance, individual replicates): 0.104 and 0.111 | cell viability blocked / inhibited ([7]; cytotoxic control, XTT, tested at 5 μM): more than 90%

C=C1[C@H](CO)[C@@H](O)C[C@@H]1n1cnc2c(=O)[nH]c(N)nc21 [Entecavir]
EC50 [5]: 0.44 nM | EC90 [5]: > 1000 nM | CC50 [6]: > 1000 nM

CCN(CCO)CCCC(C)Nc1ccnc2cc(Cl)ccc12 (stereo not drawn) [HCQ, hydroxychloroquine]
prevention of the SARS-CoV-2 induced CPE (in words) [8]: prevented most of the virus-induced CPE | CC50 [9]: > 10000 nM | viability of Vero E6 cells (percent of vehicle alone) ([10]; 0.16 μM): 103.9 ± 6.9% | viability of Vero E6 cells (percent of vehicle alone) ([10]; 0.31 μM): 102.3 ± 4.6% | viability of Vero E6 cells (percent of vehicle alone) ([10]; 0.63 μM): 103.2 ± 3.4% | viability of Vero E6 cells (percent of vehicle alone) ([10]; 1.25 μM): 100.4 ± 0.5% | viability of Vero E6 cells (percent of vehicle alone) ([10]; 2.5 μM): 94.4 ± 7.9% | viability of Vero E6 cells (percent of vehicle alone) ([10]; 5 μM): 93.4 ± 6.5% | viability of Vero E6 cells (percent of vehicle alone) ([10]; 10 μM): 93.8 ± 6.0% | viability of Vero E6 cells (in words) ([10]; Compound 1 at concentrations lower than 25 μM, HCQ at all concentrations tested): not significantly changed | IC50 [11]: ~3000 nM

CCC(CC)COC(=O)[C@H](C)N[P@](=O)(OC[C@H]1O[C@@](C#N)(c2ccc3c(N)ncnn23)[C@H](O)[C@@H]1O)Oc1ccccc1 [Remdesivir]
EC50 [12]: 20 nM | Cytotoxicity [2]: >20 µM | EC50 [13]: 20 nM | CC50 [14]: > 2000 nM | EC50 [3]: 130 nM | CC50 [15]: 6170 nM | EC50 [16]: 37500 nM | CC50 [17]: 27900 nM

NC(=O)c1ncn([C@@H]2O[C@H](CO)[C@@H](O)[C@H]2O)n1 [Ribavirin]
IC50 [1]: 71100 nM

CCN(CC)CCNC(=O)c1c(C)[nH]c(/C=C2\C(=O)Nc3ccc(F)cc32)c1C [Sunitinib]
Cytotoxicity [2]: 10 to 50 µM | CC50 [14]: 1320 nM | EC50 [3]: 630 nM | IC50 [1]: 4060 nM

Sunitinib maleate
Viability of Huh-7 Cells (A490) ([7]; 0.01 μM, 6 days, individual replicates): 0.721 and 0.651 | Viability of Huh-7 Cells (A490) ([7]; 0.04 μM, 6 days, individual replicates): 0.738 and 0.751 | Viability of Huh-7 Cells (A490) ([7]; 0.12 μM, 6 days, individual replicates): 0.719 and 0.752 | Viability of Huh-7 Cells (A490) ([7]; 0.37 μM, 6 days, individual replicates): 0.732 and 0.765 | Viability of Huh-7 Cells (A490) ([7]; 1.1 μM, 6 days, individual replicates): 0.676 and 0.665 | Viability of Huh-7 Cells (A490) ([7]; 3.3 μM, 6 days, individual replicates): 0.642 and 0.601 | Viability of Huh-7 Cells (A490) ([7]; 10 μM, 6 days, individual replicates): 0.543 and 0.554 | Viability of Huh-7 Cells (A490) ([7]; 30 μM, 6 days, individual replicates): 0.058 and 0.055 | Viability of Huh-7 Cells (A490) ([7]; 90 μM, 6 days, individual replicates): 0.053 and 0.054 | CC50 ([7]; read-out: Cytotoxicity (Huh-7 cells) CC50, 6 days, XTT): 13000 nM | Inhibition of OC43 Virus-Induced CPE in Huh-7 Cells ([4]; 0.01 μM, mean of duplicates): 1.1% | Inhibition of OC43 Virus-Induced CPE in Huh-7 Cells ([4]; 0.04 μM, mean of duplicates): −1.2% | Inhibition of OC43 Virus-Induced CPE in Huh-7 Cells ([4]; 0.12 μM, mean of duplicates): −0.1% | Inhibition of OC43 Virus-Induced CPE in Huh-7 Cells ([4]; 0.4 μM, mean of duplicates): −2.4% | Inhibition of OC43 Virus-Induced CPE in Huh-7 Cells ([4]; 1.1 μM, mean of duplicates): −1.0% | Inhibition of OC43 Virus-Induced CPE in Huh-7 Cells ([4]; 3.3 μM, mean of duplicates): 17.9% | Inhibition of OC43 Virus-Induced CPE in Huh-7 Cells ([4]; 10 μM, mean of duplicates): 21.4% | Inhibition of OC43 Virus-Induced CPE in Huh-7 Cells ([4]; 30 μM, mean of duplicates): −7.8% | EC50 ([4]; Huh-7 cells, 6 days, neutral red): > 30000 nM | Raw OD-Absorbance 490 nm ([4]; 0.01 μM): 0.120 | Raw OD-Absorbance 490 nm ([4]; 0.04 μM): 0.094 | Raw OD-Absorbance 490 nm ([4]; 0.4 μM): 0.086 and 0.090 | Raw OD-Absorbance 490 nm ([4]; 1.1 μM): 0.094 | Raw OD-Absorbance 490 nm ([4]; 3.3 μM): 0.312 and 0.136 | Raw OD-Absorbance 490 nm ([4]; 10 μM): 0.214 and 0.280 | Raw OD-Absorbance 490 nm ([4]; 30 μM): 0.051 and 0.053
